Source: PubChem BioAssay (NCI)
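Briefly, cells in 96-well plates were exposed to five compound concentrations for 48 h, and endpoints were estimated by linear interpolation. GI50 is the concentration that inhibits growth by half. TGI: total growth inhibition.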

Assays:
Experiment in all cases: DTP human tumour cell line panel, 48 h
RPMI-8226 leukemia = test system: RPMI-8226 leukemia
SK-MEL-2 melanoma = test system: SK-MEL-2 melanoma
NCI-H460 lung = test system: NCI-H460 lung
786-0 renal = test system: 786-0 renal
LOX IMVI melanoma = test system: LOX IMVI melanoma
HT29 colon = test system: HT29 colon
HOP-92 NSCLC = test system: HOP-92 NSCLC
HL-60(TB) leukemia = test system: HL-60(TB) leukemia
UO-31 renal = test system: UO-31 renal
NCI/ADR-RES ovarian = test system: NCI/ADR-RES ovarian
UACC-257 melanoma = test system: UACC-257 melanoma
PC-3 prostate = test system: PC-3 prostate
HCC-2998 colon = test system: HCC-2998 colon
HOP-62 NSCLC = test system: HOP-62 NSCLC
SF-295 CNS = test system: SF-295 CNS
SF-539 CNS = test system: SF-539 CNS
T-47D breast = test system: T-47D breast
DU-145 prostate = test system: DU-145 prostate
K-562 leukemia = test system: K-562 leukemia
A549 NSCLC = test system: A549 NSCLC
TK-10 renal = test system: TK-10 renal
EKVX NSCLC = test system: EKVX NSCLC
MDA-MB-435 = test system: MDA-MB-435
SK-MEL-28 melanoma = test system: SK-MEL-28 melanoma
MALME-3M melanoma = test system: MALME-3M melanoma
SNB-19 CNS = test system: SNB-19 CNS
COLO 205 colon = test system: COLO 205 colon
NCI-H226 lung = test system: NCI-H226 lung
BT-549 breast = test system: BT-549 breast
CAKI-1 renal = test system: CAKI-1 renal
HS 578T breast = test system: HS 578T breast
NCI-H522 lung = test system: NCI-H522 lung
SK-OV-3 ovarian = test system: SK-OV-3 ovarian
OVCAR-8 ovarian = test system: OVCAR-8 ovarian
U251 CNS = test system: U251 CNS
ACHN renal = test system: ACHN renal
RXF 393 renal = test system: RXF 393 renal
HCT-116 colon = test system: HCT-116 colon
SNB-75 CNS = test system: SNB-75 CNS
MDA-MB-231 breast = test system: MDA-MB-231 breast
CCRF-CEM leukemia = test system: CCRF-CEM leukemia
SN12C renal = test system: SN12C renal
OVCAR-5 ovarian = test system: OVCAR-5 ovarian
OVCAR-3 ovarian = test system: OVCAR-3 ovarian
NCI-H23 lung = test system: NCI-H23 lung
SK-MEL-5 melanoma = test system: SK-MEL-5 melanoma
M14 melanoma = test system: M14 melanoma
MCF7 breast = test system: MCF7 breast
UACC-62 melanoma = test system: UACC-62 melanoma
SR leukemia = test system: SR leukemia
OVCAR-4 ovarian = test system: OVCAR-4 ovarian
KM12 colon = test system: KM12 colon
IGROV1 ovarian = test system: IGROV1 ovarian
SF-268 CNS = test system: SF-268 CNS
A498 renal = test system: A498 renal
MOLT-4 leukemia = test system: MOLT-4 leukemia
SW-620 colon = test system: SW-620 colon
HCT-15 colon = test system: HCT-15 colon

O=C(/C(=C\c1c(-c2ccccc2)[nH]c2ccccc12)S(=O)(=O)c1ccccc1)c1ccccc1
GI50 (RPMI-8226 leukemia): 7.61 µM | TGI (RPMI-8226 leukemia): > 100 µM | GI50 (SK-MEL-2 melanoma): > 100 µM | TGI (SK-MEL-2 melanoma): > 100 µM | GI50 (NCI-H460 lung): 5.9 µM | TGI (NCI-H460 lung): > 100 µM | GI50 (786-0 renal): > 100 µM | TGI (786-0 renal): > 100 µM | GI50 (LOX IMVI melanoma): 74.7 µM | TGI (LOX IMVI melanoma): > 100 µM | GI50 (HT29 colon): > 100 µM | TGI (HT29 colon): > 100 µM | GI50 (HOP-92 NSCLC): 4.95 µM | TGI (HOP-92 NSCLC): > 100 µM | GI50 (HL-60(TB) leukemia): 4.98 µM | TGI (HL-60(TB) leukemia): > 100 µM | GI50 (UO-31 renal): > 100 µM | TGI (UO-31 renal): > 100 µM | GI50 (NCI/ADR-RES ovarian): > 100 µM | TGI (NCI/ADR-RES ovarian): > 100 µM | GI50 (UACC-257 melanoma): > 100 µM | TGI (UACC-257 melanoma): > 100 µM | GI50 (PC-3 prostate): 4.96 µM | TGI (PC-3 prostate): > 100 µM | GI50 (HCC-2998 colon): > 100 µM | TGI (HCC-2998 colon): > 100 µM | GI50 (HOP-62 NSCLC): > 100 µM | TGI (HOP-62 NSCLC): > 100 µM | GI50 (SF-295 CNS): 3.47 µM | TGI (SF-295 CNS): > 100 µM | GI50 (SF-539 CNS): > 100 µM | TGI (SF-539 CNS): > 100 µM | GI50 (T-47D breast): 3.44 µM | TGI (T-47D breast): > 100 µM | GI50 (DU-145 prostate): > 100 µM | TGI (DU-145 prostate): > 100 µM | GI50 (K-562 leukemia): 6.53 µM | TGI (K-562 leukemia): > 100 µM | GI50 (A549 NSCLC): 35 µM | TGI (A549 NSCLC): > 100 µM | GI50 (TK-10 renal): > 100 µM | TGI (TK-10 renal): > 100 µM | GI50 (EKVX NSCLC): 4.56 µM | TGI (EKVX NSCLC): > 100 µM | GI50 (MDA-MB-435): 3.94 µM | TGI (MDA-MB-435): > 100 µM | GI50 (SK-MEL-28 melanoma): > 100 µM | TGI (SK-MEL-28 melanoma): > 100 µM | GI50 (MALME-3M melanoma): > 100 µM | TGI (MALME-3M melanoma): > 100 µM | GI50 (SNB-19 CNS): > 100 µM | TGI (SNB-19 CNS): > 100 µM | GI50 (COLO 205 colon): 7.8 µM | TGI (COLO 205 colon): > 100 µM | GI50 (NCI-H226 lung): > 100 µM | TGI (NCI-H226 lung): > 100 µM | GI50 (BT-549 breast): > 100 µM | TGI (BT-549 breast): > 100 µM | GI50 (CAKI-1 renal): 3.13 µM | TGI (CAKI-1 renal): > 100 µM | GI50 (HS 578T breast): 39.5 µM | TGI (HS 578T breast): > 100 µM | GI50 (NCI-H522 lung): 91.8 µM | TGI (NCI-H522 lung): > 100 µM | GI50 (SK-OV-3 ovarian): 7.63 µM | TGI (SK-OV-3 ovarian): > 100 µM | GI50 (OVCAR-8 ovarian): > 100 µM | TGI (OVCAR-8 ovarian): > 100 µM | GI50 (U251 CNS): 8.64 µM | TGI (U251 CNS): > 100 µM | GI50 (ACHN renal): 6.67 µM | TGI (ACHN renal): > 100 µM | GI50 (RXF 393 renal): 97.1 µM | TGI (RXF 393 renal): > 100 µM | GI50 (HCT-116 colon): 4.89 µM | TGI (HCT-116 colon): > 100 µM | GI50 (SNB-75 CNS): 10.1 µM | TGI (SNB-75 CNS): > 100 µM | GI50 (MDA-MB-231 breast): > 100 µM | TGI (MDA-MB-231 breast): > 100 µM | GI50 (CCRF-CEM leukemia): > 100 µM | TGI (CCRF-CEM leukemia): > 100 µM | GI50 (SN12C renal): > 100 µM | TGI (SN12C renal): > 100 µM | GI50 (OVCAR-5 ovarian): > 100 µM | TGI (OVCAR-5 ovarian): > 100 µM | GI50 (OVCAR-3 ovarian): > 100 µM | TGI (OVCAR-3 ovarian): > 100 µM | GI50 (NCI-H23 lung): 9.57 µM | TGI (NCI-H23 lung): > 100 µM | GI50 (SK-MEL-5 melanoma): 9.01 µM | TGI (SK-MEL-5 melanoma): > 100 µM | GI50 (M14 melanoma): 15.6 µM | TGI (M14 melanoma): > 100 µM | GI50 (MCF7 breast): 5.63 µM | TGI (MCF7 breast): > 100 µM | GI50 (UACC-62 melanoma): 8.95 µM | TGI (UACC-62 melanoma): > 100 µM | GI50 (SR leukemia): 9.91 µM | TGI (SR leukemia): > 100 µM | GI50 (OVCAR-4 ovarian): 6.58 µM | TGI (OVCAR-4 ovarian): > 100 µM | GI50 (KM12 colon): 5.06 µM | TGI (KM12 colon): > 100 µM | GI50 (IGROV1 ovarian): > 100 µM | TGI (IGROV1 ovarian): > 100 µM | GI50 (SF-268 CNS): > 100 µM | TGI (SF-268 CNS): > 100 µM

CCOC(=O)c1nc2ccc(C(F)(F)F)cc2nc1Oc1ccc(C#N)cc1
TGI (RPMI-8226 leukemia): > 100 µM | TGI (SK-MEL-2 melanoma): 30.5 µM | TGI (NCI-H460 lung): > 100 µM | TGI (786-0 renal): 35.6 µM | TGI (LOX IMVI melanoma): > 100 µM | TGI (HT29 colon): 77.9 µM | TGI (HOP-92 NSCLC): 47.2 µM | TGI (A498 renal): 57.1 µM | TGI (HL-60(TB) leukemia): > 100 µM | TGI (UO-31 renal): > 100 µM | TGI (NCI/ADR-RES ovarian): 48.9 µM | TGI (UACC-257 melanoma): 65.8 µM | TGI (PC-3 prostate): 36 µM | TGI (HCC-2998 colon): > 100 µM | TGI (HOP-62 NSCLC): 28.9 µM | TGI (SF-295 CNS): 31.5 µM | TGI (SF-539 CNS): 36.7 µM | TGI (T-47D breast): > 100 µM | TGI (DU-145 prostate): 38.1 µM | TGI (K-562 leukemia): > 100 µM | TGI (TK-10 renal): 84.3 µM | TGI (EKVX NSCLC): 30.2 µM | TGI (MDA-MB-435): > 100 µM | TGI (SK-MEL-28 melanoma): > 100 µM | TGI (MOLT-4 leukemia): > 100 µM | TGI (SNB-19 CNS): 35.3 µM | TGI (COLO 205 colon): 88.5 µM | TGI (NCI-H226 lung): 34.8 µM | TGI (BT-549 breast): 36.8 µM | TGI (CAKI-1 renal): 59.1 µM | TGI (HS 578T breast): 36.5 µM | TGI (SK-OV-3 ovarian): 46 µM | TGI (OVCAR-8 ovarian): 46.4 µM | TGI (U251 CNS): 61.1 µM | TGI (ACHN renal): > 100 µM | TGI (RXF 393 renal): 37.8 µM | TGI (HCT-116 colon): > 100 µM | TGI (SNB-75 CNS): 28 µM | TGI (MDA-MB-231 breast): 27.9 µM | TGI (CCRF-CEM leukemia): > 100 µM | TGI (NCI-H23 lung): > 100 µM | TGI (SK-MEL-5 melanoma): > 100 µM | TGI (M14 melanoma): 42.9 µM | TGI (MCF7 breast): 37.7 µM | TGI (UACC-62 melanoma): 36.5 µM | TGI (SW-620 colon): > 100 µM | TGI (HCT-15 colon): > 100 µM | TGI (SR leukemia): > 100 µM | TGI (OVCAR-4 ovarian): 83.8 µM | TGI (KM12 colon): > 100 µM | TGI (IGROV1 ovarian): 28.5 µM | TGI (SF-268 CNS): 33.6 µM
